The record followed here is patent publication US20230312528A1, “2-OXO-IMIDAZOLIDINE-4-CARBOXAMIDES AS NAV1.8 INHIBITORS” (Merck Sharp & Dohme LLC, priority 2020, published 2023).

Molecules are shown by their SMILES.

In the test the target is human NaV1.8 (Homo sapiens (Human), UniProt Q9Y5Y9). Description: Nav1.8 Qube automated patch-clamp assay. The class given is cell-based. As to conditions: human NaV1.8 stably expressed in HEK 293 cells; automated 384-well patch-clamp; resting or inactivated state not specified. In outline: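 IC50 values from Hill-equation fits of offline percent inhibition: the 1st pulse gave resting and the 10th pulse inactivated-state inhibition. Stimulus was a 10 s, 1 Hz train to 10 mV (holding −90 mV, −67 mV interpulse) applied at room temperature to HEK293 cells stably expressing human NaV1.8 (Qube).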
human NaV1.8, sequence (Q9Y5Y9 whole entry): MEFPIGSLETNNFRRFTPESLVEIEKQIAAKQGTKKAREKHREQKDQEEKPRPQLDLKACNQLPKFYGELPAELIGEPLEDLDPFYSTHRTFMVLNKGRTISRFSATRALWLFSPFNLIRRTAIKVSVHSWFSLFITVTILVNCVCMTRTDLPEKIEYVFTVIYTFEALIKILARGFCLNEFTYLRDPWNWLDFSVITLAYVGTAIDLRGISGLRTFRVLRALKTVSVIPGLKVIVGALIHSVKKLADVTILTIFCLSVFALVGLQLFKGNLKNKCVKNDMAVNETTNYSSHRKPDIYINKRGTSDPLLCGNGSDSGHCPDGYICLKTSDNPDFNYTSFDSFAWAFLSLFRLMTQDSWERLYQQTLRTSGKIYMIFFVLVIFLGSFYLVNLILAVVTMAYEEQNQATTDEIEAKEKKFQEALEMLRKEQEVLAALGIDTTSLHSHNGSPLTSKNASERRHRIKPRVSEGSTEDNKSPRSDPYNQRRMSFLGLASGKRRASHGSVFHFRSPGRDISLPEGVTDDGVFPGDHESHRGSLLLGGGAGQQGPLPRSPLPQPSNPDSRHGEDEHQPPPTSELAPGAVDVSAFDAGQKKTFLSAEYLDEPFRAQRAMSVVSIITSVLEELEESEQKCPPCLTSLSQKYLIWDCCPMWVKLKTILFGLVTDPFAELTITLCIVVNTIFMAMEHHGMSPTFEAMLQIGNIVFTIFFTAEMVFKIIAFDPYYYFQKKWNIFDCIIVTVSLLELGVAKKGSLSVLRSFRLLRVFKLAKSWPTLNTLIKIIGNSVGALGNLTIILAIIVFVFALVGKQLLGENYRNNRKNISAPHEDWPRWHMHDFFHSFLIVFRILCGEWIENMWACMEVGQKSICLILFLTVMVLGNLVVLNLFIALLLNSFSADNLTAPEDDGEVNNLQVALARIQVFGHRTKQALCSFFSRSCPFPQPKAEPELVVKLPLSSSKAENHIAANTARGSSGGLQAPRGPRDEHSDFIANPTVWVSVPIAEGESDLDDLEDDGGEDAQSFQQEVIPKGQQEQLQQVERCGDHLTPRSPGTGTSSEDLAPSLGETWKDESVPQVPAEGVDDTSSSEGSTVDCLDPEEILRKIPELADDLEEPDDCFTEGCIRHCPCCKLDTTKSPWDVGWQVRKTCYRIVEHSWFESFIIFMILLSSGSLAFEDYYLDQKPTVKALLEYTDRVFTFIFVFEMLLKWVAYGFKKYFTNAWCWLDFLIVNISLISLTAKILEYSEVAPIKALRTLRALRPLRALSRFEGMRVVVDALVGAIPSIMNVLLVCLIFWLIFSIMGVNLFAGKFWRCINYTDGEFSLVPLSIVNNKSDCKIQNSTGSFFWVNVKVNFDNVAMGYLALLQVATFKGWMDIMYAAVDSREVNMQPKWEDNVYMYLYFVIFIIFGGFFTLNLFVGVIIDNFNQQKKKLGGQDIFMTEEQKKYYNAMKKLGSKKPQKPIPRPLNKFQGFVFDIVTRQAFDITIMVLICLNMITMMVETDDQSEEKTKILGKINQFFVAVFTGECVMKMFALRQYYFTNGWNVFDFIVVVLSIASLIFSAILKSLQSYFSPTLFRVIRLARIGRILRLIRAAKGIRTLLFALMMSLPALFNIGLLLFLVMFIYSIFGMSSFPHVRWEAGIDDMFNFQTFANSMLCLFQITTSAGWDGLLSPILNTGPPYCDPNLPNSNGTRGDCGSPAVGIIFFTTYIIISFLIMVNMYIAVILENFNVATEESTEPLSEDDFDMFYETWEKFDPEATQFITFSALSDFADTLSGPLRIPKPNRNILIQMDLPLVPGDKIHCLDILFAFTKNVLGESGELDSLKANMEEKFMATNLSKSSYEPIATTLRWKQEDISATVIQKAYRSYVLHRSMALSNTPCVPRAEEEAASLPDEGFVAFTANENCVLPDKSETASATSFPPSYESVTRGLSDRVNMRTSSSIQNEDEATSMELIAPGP
On the technique in general: Patch clamp records ionic current or voltage across a cell membrane.
In general, IC50 refers to the midpoint of a concentration-inhibition curve. `O=C1NC[C@@H](C(=O)NC(c2cnc(OC(F)F)nc2)c2ccc(F)c(Cl)c2F)N1` (single isomer, unassigned) [Example 64B, (S)-N-((R or S)-(3-chloro-2,4-difluorophenyl)(2-(difluoromethoxy)pyrimidin-5-yl)methyl)-2-oxoimidazolidine-4-carboxamide] had an IC50 of 805 nM. In turn, `O=C1NC[C@@H](C(=O)NC(c2ccc(F)c(Cl)c2)c2nc3cccnc3s2)N1` (stereo partly drawn) [Example 72, (4S)-N-((3-chloro-4-fluorophenyl)(thiazolo [5,4-b]pyridin-2-yl)methyl)-2-oxoimidazolidine-4-carboxamide] showed a concentration for half-maximal inhibition (IC50) of 74 nM. Under `O=C1NC[C@@H](C(=O)NC(c2cnc(OC(F)F)c(F)c2)c2ccc(F)c(Cl)c2F)N1` (single isomer, unassigned) [Example 42, (S)-N-((R or S)-(3-chloro-2,4-difluorophenyl)(6-(difluoromethoxy)-5-fluoropyridin-3-yl)methyl)-2-oxoimidazolidine-4-carboxamide] stands 190 nM; under `N#Cc1cc(C(NC(=O)[C@@H]2CNC(=O)N2)c2ccc(OC(F)(F)F)cc2)ccc1Cl` (single isomer, unassigned) [Example 57B, (S)-N-((R or S)-(4-chloro-3-cyanophenyl)(4-(trifluoromethoxy)phenyl)methyl)-2-oxoimidazolidine-4-carboxamide], 2.4 nM.

`O=C1NC[C@@H](C(=O)NC(c2ccc(Cl)cc2)c2ccc3cn[nH]c3c2)N1` (single isomer, unassigned) [Example 82B, (S)-N-((R or S)-(4-chlorophenyl)(1H-indazol-6-yl)methyl)-2-oxoimidazolidine-4-carboxamide] registered a concentration for half-maximal inhibition (IC50) of 93 nM. `Cc1nc2cc(C(NC(=O)[C@@H]3CNC(=O)N3)c3ccc(F)c(Cl)c3)ccc2s1` (single isomer, unassigned) [Example 66A, (S)—N—((R or S)-(3-chloro-4-fluorophenyl)(2-methylbenzo[d]thiazol-5-yl)methyl)-2-oxoimidazolidine-4-carboxamide] came in with a half-inhibitory concentration (IC50) of 63 nM.

Compound `O=C1NC[C@@H](C(=O)NC(c2ccc(OC(F)(F)F)c(Cl)c2)c2ccc(OC(F)(F)F)cn2)N1` (single isomer, unassigned) [Example 39A, (S)—N—((R or S)-(3-chloro-4-(trifluoromethoxy)phenyl)(5-(trifluoromethoxy)pyridin-2-yl)methyl)-2-oxoimidazolidine-4-carboxamide] registered an IC50 of 1.3 nM. Under `O=C1NC[C@@H](C(=O)NC(c2ccc(OCC(F)(F)F)nc2)c2ccc(F)c(Cl)c2F)N1` (single isomer, unassigned) [Example 33B, (S)—N—((R or S)-(3-chloro-2,4-difluorophenyl)(6-(2,2,2-trifluoroethoxy)pyridin-3-yl)methyl)-2-oxoimidazolidine-4-carboxamide] stands 39 nM; under `O=C1NC[C@@H](C(=O)NC(c2ccc(OC(F)(F)F)nc2)c2ccc(F)c(C(F)(F)F)n2)N1` (single isomer, unassigned) [Example 45B, (S)-N-((R or S)-(5-fluoro-6-(trifluoro-methyl)pyridin-2-yl)(6-(trifluoromethoxy)pyridin-3-yl)methyl)-2-oxoimidazolidine-4-carboxamide], 125 nM.

Compound `O=C1NC[C@@H](C(=O)NC(c2ccc(OC(F)(F)F)c(Cl)c2)c2coc(C(F)(F)F)n2)N1` (single isomer, unassigned) [Example 47A, (S)-N-((R or S)-(3-chloro-4-(trifluoro-methoxy)phenyl)(2-(trifluoromethyl)oxazo 1-4-yl)methyl)-2-oxoimidazolidine-4-carboxamide] returned an IC50 of 5.2 nM.

`O=C1NC[C@@H](C(=O)NC(c2cnc(OC(F)F)nc2)c2ccc(F)c(Cl)c2F)N1` (single isomer, unassigned) [Example 55A, (4S)—N—((R or S)-(3-chloro-2,4-difluorophenyl)(2-(difluoromethoxy)pyrimidin-5-yl)methyl)-2-oxoimidazolidine-4-carboxamide] registered an IC50 of 79 nM.
